Assay results from patent US11065226B2, “Combination comprising EP4 antagonist and immune checkpoint inhibitor” (ONO PHARMACEUTICAL CO., LTD., priority 2016, dated 2021).

Key:
[1] = tested on: mouse colorectal cancer cell line MC38; test: Combination therapy with Example 2-2 and anti-mouse PD-1 antibody in allograft model of MC38; format: in vivo; conditions: female C57BL/6 mice, Example 2-2 3 mg/kg orally twice a day day 8 to 24, anti-mouse PD-1 antibody i.p. 20 mg/kg day 8, 10 mg/kg day 14 and 20
Protocol: (§1) The effect of the combination therapy with the compound of Example 2-2 and an anti-mouse PD-1 antibody was evaluated in an allograft model of a mouse colorectal cancer cell line, MC38 (Cancer Res. (1975), 35(9), p 2434-9). The MC38 cells were cultured in a DMEM medium containing 10 vol % FBS, 100 units/mL penicillin, and 100 μg/mL streptomycin in a CO2 incubator. On the day of transplantation, the culture supernatant was removed, and then the MC38 cells were washed with PBS and collected. The collected MC38 cells were suspended in PBS and used as transplant cells. Under anesthesia, 1,000,000 transplant cells were subcutaneously transplanted into the right lateral abdominal regions of female C57BL/6 mice. On day 8 after the transplantation, the mice were divided into four groups of a vehicle group, an Example 2-2 compound-single therapy group, an anti-mouse PD-1 antibody-single therapy group, and a combination therapy group (the compound of Example 2-2 and the anti-mouse PD-1 antibody), each containing 10 individuals. […] The tumor volumes (mm^3) were calculated by the following equation from the tumor lengths along the minor axis and the major axis which were measured using a digital caliper. […]

rat EP4 receptor = molecular target: T1, rat EP4 receptor (Rattus norvegicus, UniProt P43114); test: EP4 antagonistic activity measurement using prostanoid receptor subtype-expressing cells (cAMP, PGE2 10 nM); format: cell-based; conditions: CHO cells expressing rat EP4 receptor; inhibition of cAMP production by PGE2 10 nM; 30 minutes at room temperature
T1 construct: expressed in transfected cells; host or cells: CHO cells
T1 sequence (P43114 whole entry): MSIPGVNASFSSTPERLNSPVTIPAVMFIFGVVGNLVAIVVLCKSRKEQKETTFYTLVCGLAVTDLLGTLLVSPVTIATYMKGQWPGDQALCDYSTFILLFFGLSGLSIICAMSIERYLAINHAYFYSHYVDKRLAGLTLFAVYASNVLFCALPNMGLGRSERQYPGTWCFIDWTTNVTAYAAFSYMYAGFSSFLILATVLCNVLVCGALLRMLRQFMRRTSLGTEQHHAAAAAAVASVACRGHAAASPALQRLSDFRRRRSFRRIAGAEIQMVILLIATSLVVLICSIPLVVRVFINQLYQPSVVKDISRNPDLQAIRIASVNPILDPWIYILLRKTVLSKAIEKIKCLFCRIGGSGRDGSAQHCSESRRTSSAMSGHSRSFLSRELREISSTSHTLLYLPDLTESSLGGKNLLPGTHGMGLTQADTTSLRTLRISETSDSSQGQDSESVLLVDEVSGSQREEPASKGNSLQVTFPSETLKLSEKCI
Protocol: CHO cells expressing rat EP4 receptor subtypes were prepared according to the methods of Nishigaki et al. (Non-Patent Document 4) and used for experiment. Cultured subconfluent cells were detached and suspended in an assay medium (MEM containing 1 mmol/L IBMX, 1% HSA) in a concentration of 1×10^6 cells/mL. To start the reaction, PGE2 was added to the cell suspension (25 μL) in a final concentration of 10 nmol/L, either alone or as a 25-μL PGE2 solution containing a test compound. After 30 minutes of reaction at room temperature, the amount of cAMP in the cells was quantified according to the method in the descriptions of the cAMP assay kit (CISBIO).
The antagonistic effect (IC50 value) of the test compound was calculated as a value that represents an inhibition rate against a reaction with PGE2 alone at 10 nM, a concentration that produces a submaximal cAMP producing effect.

[2] = tested on: mouse colorectal cancer cell line MC38; test: Combination therapy with Example 2-13 and anti-mouse CTLA-4 antibody in allograft model of MC38; format: in vivo; conditions: female C57BL/6 mice, Example 2-13 5 mg/kg orally twice a day day 7 to 28, anti-mouse CTLA-4 antibody i.p. 10 mg/kg day 7, 10, 14, 17
Protocol: (§2) The effect of the combination therapy with the compound of Example 2-13 and an anti-mouse CTLA-4 antibody was evaluated in an allograft model of a mouse colorectal cancer cell line, MC38. The MC38 cells were cultured using a DMEM medium containing 10 vol % FBS, 2 mmol/L Glutamax, 100 units/mL penicillin, and 100 μg/mL streptomycin in a CO2 incubator. On the day of transplantation, the culture supernatant was removed, and then the MC38 cells were washed with PBS and collected. The collected MC38 cells were suspended in PBS and used as transplant cells. Under anesthesia, 1,000,000 transplant cells were subcutaneously transplanted into the right lateral abdominal regions of female C57BL/6 mice. On day 7 after the transplantation, the mice were divided into four groups of a vehicle group, an Example 2-13 compound-single therapy group, an anti-mouse CTLA-4 antibody-single therapy group, and a combination therapy group (the compound of Example 2-13 and the anti-mouse CTLA-4 antibody), each containing 15 individuals. […] The tumor volumes (mm^3) were calculated by the following equation from the tumor lengths along the minor axis and the major axis and the tumor height which were measured using a digital caliper. […]

[3] = tested on: mouse colorectal cancer cell line MC38; test: Combination therapy with Example 2-13 and anti-mouse PD-1 antibody in allograft model of MC38; format: in vivo; conditions: female C57BL/6 mice
Protocol: as §1, with “Example 2-13” for “Example 2-2”, “and 100}μg/mL” for “and 100 μg/mL”, “anesthesia, 200,000” for “anesthesia, 1,000,000”, “day 7” for “day 8”

[4] = tested on: mouse fibrosarcoma cell line SalN; test: Combination therapy with Example 2-13 and anti-mouse PD-1 antibody in allograft model of SalN; format: in vivo; conditions: female A/J mice, Example 2-13 5 mg/kg orally twice a day day 7 to 21, anti-mouse PD-1 antibody i.p. 3 mg/kg day 7, 10, 14, 17
Protocol: as §2, with “PD-1” for “CTLA-4”, “fibrosarcoma” for “colorectal cancer”, “SalN (Cancer Res. (2012), 72(4), p 917-27).” for “MC38.”, “SalN” for “MC38”, “2,000,000” for “1,000,000”, “A/J” for “C57BL/6”

[5] = tested on: mouse colorectal cancer cell line CT26; test: Combination therapy with Example 2-13 and anti-mouse PD-1 antibody in allograft model of CT26; format: in vivo; conditions: female BALB/c mice, Example 2-13 5 mg/kg orally twice a day day 7 to 21, anti-mouse PD-1 antibody i.p. 3 mg/kg day 7, 10, 14, 17
Protocol: as §2, with “PD-1” for “CTLA-4”, “CT26 (Cancer Res. (2013), 73(12), p3591-603).” for “MC38.”, “CT26” for “MC38”, “RPMI” for “DMEM”, “BALB/c” for “C57BL/6”, “15 to 18” for “15”

SMILES: COCCNC(=O)c1ccc2c(c1)[C@]1(CCO2)C[C@H]1C(=O)Nc1cc(C#N)ccc1CCCC(=O)O [Example 2-2]
- tumor growth (tumor volume, FIG. 2) [1]: inhibited the tumor growth alone

SMILES: Cn1cc(NC(=O)c2ccc3c(c2)[C@]2(CCO3)C[C@H]2C(=O)Nc2cc(C#N)ccc2CCCC(=O)O)cn1 [Example 2-5]
- IC50 (rat EP4 receptor): 1.3 nM

SMILES: CC(C)NC(=O)c1ccc2c(c1)[C@]1(CCO2)C[C@H]1C(=O)Nc1cc(C#N)ccc1CCCC(=O)O [Example 2-13, 4-[4-cyano-2-({[(2′R,4S)-6-(isopropylcarbamoyl)-2,3-dihydrospiro[chromene-4,1′-cyclopropan]-2′-yl]carbonyl}amino)phenyl]butanoic acid]
- tumor growth (tumor volume, FIG. 3) [2]: inhibited the tumor growth alone
- Cases of Disappearance of Tumor/Cases ([3]; Example 2-13 3 mg/kg orally twice a day to day 28, anti-mouse PD-1 antibody i.p. 20 mg/kg day 7, 10 mg/kg day 13 and 19): 0/10
- tumor growth (tumor volume, FIG. 1) ([3]; Example 2-13 3 mg/kg orally, anti-mouse PD-1 antibody i.p. 20 mg/kg then 10 mg/kg): inhibited the tumor growth alone
- tumor growth (tumor volume, FIG. 4) [4]: inhibited the tumor growth alone
- tumor growth (tumor volume, FIG. 5) [5]: inhibited the tumor growth alone
